In US20230293539A1, “MLL1-WDR5 PROTEIN-PROTEIN INTERACTION INHIBITOR COMPOUNDS AND USES THEREOF” (HUYABIO International, LLC, priority 2022, published 2023):

Legend:
[1] = target: TEAD1 (Homo sapiens, UniProt P28347); assay: Selectivity panel (Table 3); format: binding
[2] = target: WDR5 (Homo sapiens, UniProt P61964); assay: WDR5 TR-FRET Assay; format: binding; details: 5 nM WDR5 protein, 10 nM peptide, read-out: IC50 (MLL1-WDR5 PPI inhibitory activity)
Procedure: WDR5 TR-FRET Assay Procedure: Stock compounds were transferred to the assay plate by Echo Liquid Handler. Reactions were performed in the assay buffer (1×PBS, 300 mM NaCl, 0.5 mM TCEP, 0.1% CHAPS) containing 5 nM WDR5 protein, 10 nM peptide (Ac-ARTEVHLRKS-[Ahx-Ahx][C]-Alexa Fluor 488-NH2) and 0.25 nM Tb-anti His antibody (Tb-Ab) in 384-well white plate (PerkinElmer) with a final volume of 20 μl. Compounds were incubated with WDR5 protein for 30 min at room temperature. Plates were covered, protected from light and incubated for 60 min. at room temperature after adding the peptide and Tb-Ab. EnVision Multimode Plate Reader (PerkinElmer) was used for the TR-FRET assay with excitation wavelength at 340 nm and emission wavelength at 495 and 520 nm. The ratio of the 520/495 nm wavelengths were used to assess the degree of the FRET signal. IC50 was calculated by fitting the inhibition data using XLfit software to sigmoidal dose-response model.

[3] = Metabolite ID in plasma; format: in vitro ADME; details: HBI-2375 and metabolites in Rat plasma
[4] = target: MALTI (Homo sapiens, UniProt Q9UDY8); assay: Selectivity panel (Table 3); format: biochemical
MALTI, sequence (Q9UDY8 whole entry): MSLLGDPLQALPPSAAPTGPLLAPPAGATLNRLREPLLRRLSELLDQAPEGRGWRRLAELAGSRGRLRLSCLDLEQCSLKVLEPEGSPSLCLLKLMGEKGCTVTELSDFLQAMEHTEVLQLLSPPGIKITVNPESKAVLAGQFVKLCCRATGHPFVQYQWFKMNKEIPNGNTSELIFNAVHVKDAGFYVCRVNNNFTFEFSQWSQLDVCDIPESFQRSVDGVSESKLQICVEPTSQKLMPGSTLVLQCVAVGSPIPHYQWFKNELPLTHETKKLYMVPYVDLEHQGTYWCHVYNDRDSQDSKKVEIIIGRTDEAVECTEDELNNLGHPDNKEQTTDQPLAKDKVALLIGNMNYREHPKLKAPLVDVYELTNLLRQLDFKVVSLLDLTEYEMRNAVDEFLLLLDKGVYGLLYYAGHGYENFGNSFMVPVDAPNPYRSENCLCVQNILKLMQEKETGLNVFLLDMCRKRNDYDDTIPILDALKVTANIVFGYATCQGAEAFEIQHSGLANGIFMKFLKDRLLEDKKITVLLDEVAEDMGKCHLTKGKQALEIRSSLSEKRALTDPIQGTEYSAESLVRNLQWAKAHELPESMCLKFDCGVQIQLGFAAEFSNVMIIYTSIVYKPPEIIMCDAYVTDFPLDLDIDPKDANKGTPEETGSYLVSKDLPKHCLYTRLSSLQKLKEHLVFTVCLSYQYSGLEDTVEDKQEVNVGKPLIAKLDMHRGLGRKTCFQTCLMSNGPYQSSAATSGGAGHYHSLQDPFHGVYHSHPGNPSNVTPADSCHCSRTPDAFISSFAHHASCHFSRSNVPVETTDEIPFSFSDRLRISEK

[5] = target: T1, BRD2-BD2 (Homo sapiens, UniProt P25440); assay: Selectivity panel (Table 3); format: binding
T1 construct: BRD2-BD2
T1 sequence (P25440 344-453 limits assumed): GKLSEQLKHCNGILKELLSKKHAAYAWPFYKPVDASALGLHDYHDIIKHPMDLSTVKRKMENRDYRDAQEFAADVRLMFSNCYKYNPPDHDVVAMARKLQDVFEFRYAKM

[6] = target: SHP2 WT (Homo sapiens, UniProt Q06124); assay: Selectivity panel (Table 3); format: biochemical
SHP2 WT, sequence (Q06124 whole entry): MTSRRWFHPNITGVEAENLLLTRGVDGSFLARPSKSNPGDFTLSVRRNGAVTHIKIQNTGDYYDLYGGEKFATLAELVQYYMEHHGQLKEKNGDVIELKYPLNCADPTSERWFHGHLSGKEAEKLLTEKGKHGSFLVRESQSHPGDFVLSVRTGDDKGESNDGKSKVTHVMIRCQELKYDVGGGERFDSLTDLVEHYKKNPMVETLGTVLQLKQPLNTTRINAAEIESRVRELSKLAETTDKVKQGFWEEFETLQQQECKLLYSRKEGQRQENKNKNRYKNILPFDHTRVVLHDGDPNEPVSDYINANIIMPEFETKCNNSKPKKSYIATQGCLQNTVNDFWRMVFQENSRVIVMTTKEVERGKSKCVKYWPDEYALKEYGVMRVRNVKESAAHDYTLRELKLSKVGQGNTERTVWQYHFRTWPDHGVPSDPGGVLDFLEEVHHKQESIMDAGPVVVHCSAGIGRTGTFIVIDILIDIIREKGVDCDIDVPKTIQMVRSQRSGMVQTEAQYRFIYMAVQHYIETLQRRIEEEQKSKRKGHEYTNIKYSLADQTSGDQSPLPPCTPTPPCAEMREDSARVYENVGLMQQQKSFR

[7] = target: T2, BRD4-BD2 (Homo sapiens, UniProt O60885); assay: Selectivity panel (Table 3); format: binding
T2 construct: BRD4-BD2

[8] = target: POLQ ATPase (Homo sapiens, UniProt O75417); assay: Selectivity panel (Table 3); format: biochemical
[9] = target: KRAS G12D (Homo sapiens, UniProt P01116, G12D); assay: Selectivity panel (Table 3); format: binding
KRAS G12D, sequence (P01116 1-188 isoform P01116-2 G12D): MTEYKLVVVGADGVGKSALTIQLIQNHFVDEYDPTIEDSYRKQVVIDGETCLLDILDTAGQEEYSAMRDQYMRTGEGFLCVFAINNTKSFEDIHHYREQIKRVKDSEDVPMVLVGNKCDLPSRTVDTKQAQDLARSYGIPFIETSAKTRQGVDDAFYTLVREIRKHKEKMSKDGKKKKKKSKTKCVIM

[10] = target: CD73 (Homo sapiens, UniProt P21589); assay: Selectivity panel (Table 3); format: biochemical
CD73, sequence (P21589 27-549, species assumed): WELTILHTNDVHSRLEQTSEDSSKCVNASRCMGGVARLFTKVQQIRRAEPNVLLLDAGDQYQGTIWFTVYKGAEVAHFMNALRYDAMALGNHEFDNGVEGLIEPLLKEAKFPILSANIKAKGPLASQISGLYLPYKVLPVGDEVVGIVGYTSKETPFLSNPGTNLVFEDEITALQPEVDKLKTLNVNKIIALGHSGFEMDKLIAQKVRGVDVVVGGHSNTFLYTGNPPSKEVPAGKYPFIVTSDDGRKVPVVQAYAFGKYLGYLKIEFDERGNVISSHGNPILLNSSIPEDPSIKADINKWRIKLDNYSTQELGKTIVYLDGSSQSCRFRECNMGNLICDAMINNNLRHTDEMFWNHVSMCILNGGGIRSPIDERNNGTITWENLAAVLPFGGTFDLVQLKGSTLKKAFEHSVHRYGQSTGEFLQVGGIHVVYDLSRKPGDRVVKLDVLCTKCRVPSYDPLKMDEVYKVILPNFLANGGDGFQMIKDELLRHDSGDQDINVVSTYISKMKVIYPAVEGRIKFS

[11] = in vitro; details: dog, plasma
[12] = target: POLQPolymerase (Homo sapiens, UniProt O75417); assay: Selectivity panel (Table 3); format: biochemical
[13] = Dog PK (oral); format: in vivo, Beagle dogs; details: for Cmax / AUC(0-t) / half-life: Beagle, plasma
Procedure: Dog PK: Fasted or fed non-naïve Beagle dogs (Marshall Bioresources, Beijing, China) were administered a single intravenous bolus or oral gavage administration of test compounds at respective doses. Blood samples for plasma isolation were collected from a peripheral vessel, from restrained, non-sedated animals at the respective sampling time points. The quantification of compound concentrations in dog plasma was quantified using LC-MS/MS method. Plasma concentration versus time data was analyzed by non-compartmental mode approaches using the WinNonlin software program (version 6.3 or above, Pharsight). Pharmacokinetic parameters, including C0, CL, Vdss, Cmax, Tmax T1/2, AUC0-last, AUC0-inf, MRT0-last, MRT0-inf, bioavailability (%) for IV and PO groups were calculated. See FIGS. 9A, […], 9C and FIGS. 10A, 10B, 10C, and 10D.

[14] = target: T3, BRDT-BD1 (Homo sapiens, UniProt Q58F21); assay: Selectivity panel (Table 3); format: binding
T3 construct: BRDT-BD1

[15] = in vitro; details: mouse, plasma
[16] = Metabolite ID in plasma; format: in vitro ADME; details: HBI-2375 and metabolites in Mouse plasma
[17] = target: TEAD3 (Homo sapiens, UniProt Q99594); assay: Selectivity panel (Table 3); format: binding
TEAD3, sequence (Q99594 whole entry, species assumed): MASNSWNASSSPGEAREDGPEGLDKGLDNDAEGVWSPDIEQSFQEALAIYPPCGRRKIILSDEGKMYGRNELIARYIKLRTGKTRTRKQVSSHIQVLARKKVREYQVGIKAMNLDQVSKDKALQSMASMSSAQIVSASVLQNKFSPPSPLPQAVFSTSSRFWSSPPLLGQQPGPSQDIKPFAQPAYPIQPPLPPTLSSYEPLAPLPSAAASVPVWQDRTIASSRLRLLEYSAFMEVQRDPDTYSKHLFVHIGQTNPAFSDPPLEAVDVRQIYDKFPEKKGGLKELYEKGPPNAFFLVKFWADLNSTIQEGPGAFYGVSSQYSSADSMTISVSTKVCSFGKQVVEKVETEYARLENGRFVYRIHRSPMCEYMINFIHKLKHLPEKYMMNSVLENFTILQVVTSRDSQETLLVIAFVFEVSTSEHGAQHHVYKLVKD

[18] = Metabolite ID in Liver S9; format: in vitro ADME; details: HBI-2375 and metabolites in Rat liver S9
[19] = target: KRAS G12C (Homo sapiens, UniProt P01116, G12C); assay: Selectivity panel (Table 3); format: binding
KRAS G12C, sequence (P01116 1-188 isoform P01116-2 G12C): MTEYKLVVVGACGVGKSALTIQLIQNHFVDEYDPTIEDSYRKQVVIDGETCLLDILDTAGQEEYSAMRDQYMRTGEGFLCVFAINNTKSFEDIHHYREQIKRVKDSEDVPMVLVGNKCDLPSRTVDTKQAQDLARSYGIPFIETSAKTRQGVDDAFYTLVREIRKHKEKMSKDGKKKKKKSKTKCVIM

[20] = Metabolite ID in Liver S9; format: in vitro ADME; details: HBI-2375 and metabolites in Monkey liver S9
[21] = target: HDAC8 (Homo sapiens, UniProt Q9BY41); assay: Selectivity panel (Table 3); format: biochemical
HDAC8, sequence (Q9BY41 whole entry, species assumed): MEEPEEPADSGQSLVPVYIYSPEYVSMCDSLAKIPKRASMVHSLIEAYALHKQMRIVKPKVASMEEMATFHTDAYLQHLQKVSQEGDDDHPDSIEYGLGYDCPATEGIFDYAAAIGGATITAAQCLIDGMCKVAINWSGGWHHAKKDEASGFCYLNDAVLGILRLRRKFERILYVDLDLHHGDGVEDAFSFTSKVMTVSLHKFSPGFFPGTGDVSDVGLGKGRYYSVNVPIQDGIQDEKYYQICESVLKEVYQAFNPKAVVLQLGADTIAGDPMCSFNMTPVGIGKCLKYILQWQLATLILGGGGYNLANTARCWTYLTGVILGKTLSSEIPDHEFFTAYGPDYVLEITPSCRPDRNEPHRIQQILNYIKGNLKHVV

[22] = Metabolite ID in Liver S9; format: in vitro ADME; details: HBI-2375 and metabolites in Mouse liver S9
[23] = target: T4, BRD4-BD1 (Homo sapiens, UniProt O60885); assay: Selectivity panel (Table 3); format: binding
T4 construct: BRD4-BD1

[24] = Metabolite ID in plasma; format: in vitro ADME; details: HBI-2375 and metabolites in Monkey plasma
[25] = target: WIP 1 (Homo sapiens, UniProt O15297); assay: Selectivity panel (Table 3); format: biochemical
WIP 1, sequence (O15297 whole entry, species assumed): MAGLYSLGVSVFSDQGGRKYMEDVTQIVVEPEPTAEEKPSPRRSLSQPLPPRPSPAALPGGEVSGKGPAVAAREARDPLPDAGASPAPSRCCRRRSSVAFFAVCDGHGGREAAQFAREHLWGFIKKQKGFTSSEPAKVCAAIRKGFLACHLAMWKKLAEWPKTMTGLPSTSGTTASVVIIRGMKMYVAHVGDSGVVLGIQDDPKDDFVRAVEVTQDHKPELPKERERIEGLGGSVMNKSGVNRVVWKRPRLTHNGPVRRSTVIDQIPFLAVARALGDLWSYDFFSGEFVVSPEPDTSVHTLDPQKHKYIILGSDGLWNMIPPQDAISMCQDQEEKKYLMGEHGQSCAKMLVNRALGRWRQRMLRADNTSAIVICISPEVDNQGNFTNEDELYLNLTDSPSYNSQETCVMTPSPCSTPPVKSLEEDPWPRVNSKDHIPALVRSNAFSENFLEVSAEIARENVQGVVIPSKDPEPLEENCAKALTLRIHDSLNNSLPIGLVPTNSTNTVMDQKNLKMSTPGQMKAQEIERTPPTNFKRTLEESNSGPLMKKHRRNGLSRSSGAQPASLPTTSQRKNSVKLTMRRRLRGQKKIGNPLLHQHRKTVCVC

[26] = target: GLS1 (Homo sapiens, UniProt O94925); assay: Selectivity panel (Table 3); format: biochemical
GLS1, sequence (O94925 73-669 limits assumed, species assumed): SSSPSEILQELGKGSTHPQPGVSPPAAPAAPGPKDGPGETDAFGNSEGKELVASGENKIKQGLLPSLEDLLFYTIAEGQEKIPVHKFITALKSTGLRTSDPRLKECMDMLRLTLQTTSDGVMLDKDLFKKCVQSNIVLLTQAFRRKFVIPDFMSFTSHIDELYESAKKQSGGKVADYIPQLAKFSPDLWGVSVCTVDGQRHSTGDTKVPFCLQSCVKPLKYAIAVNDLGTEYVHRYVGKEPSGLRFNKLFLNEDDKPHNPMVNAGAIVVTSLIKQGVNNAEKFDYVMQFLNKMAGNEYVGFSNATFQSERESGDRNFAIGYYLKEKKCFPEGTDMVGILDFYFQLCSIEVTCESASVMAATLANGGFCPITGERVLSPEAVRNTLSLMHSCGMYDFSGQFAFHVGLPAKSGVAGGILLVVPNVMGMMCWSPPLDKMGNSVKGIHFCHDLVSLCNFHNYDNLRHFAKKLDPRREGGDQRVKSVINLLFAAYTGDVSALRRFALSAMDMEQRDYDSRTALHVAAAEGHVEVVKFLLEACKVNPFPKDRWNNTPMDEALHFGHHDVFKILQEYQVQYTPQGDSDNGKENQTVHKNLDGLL

[27] = Metabolite ID in plasma; format: in vitro ADME; details: HBI-2375 and metabolites in Dog plasma

TEAD1, sequence (P28347 whole entry, species assumed): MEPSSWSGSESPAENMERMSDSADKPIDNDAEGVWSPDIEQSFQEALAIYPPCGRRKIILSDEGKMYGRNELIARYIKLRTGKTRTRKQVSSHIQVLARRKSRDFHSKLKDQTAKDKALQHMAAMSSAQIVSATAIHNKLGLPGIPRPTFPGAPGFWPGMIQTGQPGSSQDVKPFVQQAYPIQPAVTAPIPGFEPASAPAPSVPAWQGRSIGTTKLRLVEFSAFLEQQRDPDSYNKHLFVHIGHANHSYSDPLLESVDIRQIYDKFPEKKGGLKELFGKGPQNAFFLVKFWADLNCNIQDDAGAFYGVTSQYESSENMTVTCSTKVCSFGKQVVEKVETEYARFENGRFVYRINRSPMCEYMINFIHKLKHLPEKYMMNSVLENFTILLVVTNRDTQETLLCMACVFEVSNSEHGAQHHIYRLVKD

Cc1c(F)c(N)cc(C(=O)Nc2cc(-n3cc(C(=O)N4CCN(C)CC4)nn3)c(F)cc2N2C[C@@H](C)N(C)[C@@H](C)C2)c1Cl [HYBI-084, 5-amino-2-chloro-4-fluoro-N-(4-fluoro-5-(4-(4-methylpiperazine-1-carbonyl)-1H-1,2,3-triazol-1-yl)-2-((3S,5R)-3,4,5-trimethylpiperazin-1-yl)phenyl)-3-methylbenzamide]
IC50 [1]: > 1000 nM
IC50 [2]: 4.48 nM
Relative Abundance (UV Peak Area % Total) [3]: 93.47%
IC50 [4]: > 1000 nM
IC50 [5]: > 1000 nM
IC50 [6]: > 1000 nM
IC50 [7]: > 1000 nM
IC50 [8]: > 1000 nM
IC50 [9]: > 1000 nM
IC50 [10]: > 1000 nM
fraction unbound [11]: < 0.24
IC50 [12]: > 1000 nM
F ([13]; 1.5 mpk): 11.4%
F ([13]; 4.5 mpk): 37.7%
Cmax ([13]; 1.5 mg/kg, 1.5 mpk): 8.4 nM
Cmax ([13]; 4.5 mg/kg, 4.5 mpk): 47.6 nM
AUC(0-t) ([13]; 1.5 mg/kg, 1.5 mpk): 0.0466 µM·h
half-life ([13]; 1.5 mg/kg, 1.5 mpk): 7.5 h
AUC(0-t) ([13]; 4.5 mg/kg, 4.5 mpk): 0.459 µM·h
half-life ([13]; 4.5 mg/kg, 4.5 mpk): 6.3 h
IC50 [14]: > 1000 nM
fraction unbound [15]: < 0.07
Relative Abundance (UV Peak Area % Total) [16]: 92.78%
IC50 [17]: > 1000 nM
Relative Abundance (UV Peak Area % Total) [18]: 71.86%
IC50 [19]: > 1000 nM
Relative Abundance (UV Peak Area % Total) [20]: 34.68%
IC50 [21]: > 1000 nM
Relative Abundance (UV Peak Area % Total) [22]: 63.02%
IC50 [23]: > 1000 nM
Relative Abundance (UV Peak Area % Total) [24]: 97.58%
IC50 [25]: > 1000 nM
IC50 [26]: > 1000 nM
Relative Abundance (UV Peak Area % Total) [27]: 97.31%
